Structure (SMILES) | melting point [°C]
O=C(CCCN1CCC2(CC1)OC(=O)c1ccccc12)c1ccc(F)cc1 | 183 to 184
CC(C)(CCc1ccc(OCCO)cc1)NCC(O)c1ccccc1 (stereo not drawn) | 118 to 120
COc1cc(NC(=O)OC(C)(C)C)c(N)cc1C#Cc1ccccc1 | 158
COc1ccc(NC(C)=O)cc1NC(=O)NC(=O)c1cc(F)c(F)cc1Cl | 225 to 228
CC(C)(C)OC(=O)N1CCC[C@H]1COc1cnc(Cl)c(-c2ccc(Cl)cc2)c1 | 86 to 89
CC(C)NC(=O)c1ccc(-c2ccc3nnn(Cc4ccc5ncccc5c4)c3n2)cc1F | 177 to 179
COC(=O)NC(=O)Cc1nc(-c2cc(C(C)(C)C)c(O)c(C(C)(C)C)c2)oc1C | 125 to 127
COc1ccc(-c2cnc(-c3ccccc3)[nH]c2=O)cc1OC | 230
C=CCN(CC=C)Cc1nc(-c2ncn3c2[C@@H]2CCN2C(=O)c2c-3ccc(F)c2Cl)no1 | 103 to 104
Cc1cnc(NC(=O)Nc2ccc(N3CCN(C(=O)Nc4ccc(OCCO)cc4C(F)(F)F)CC3)cc2)s1 | 118 to 120
CN(C)CC1CCc2cc(NC(=O)c3ccc(Br)cc3)ccc2C1 (stereo not drawn) | 141 to 143
CC(C)CCCc1c(C(C)C)nc(C(C)C)c(CO)c1-c1ccc(F)cc1 | 101 to 103
CCC1(C2CCCC2)Cc2cc(OCCCC(=O)O)c(Cl)c(Cl)c2C1=O (stereo not drawn) | 189 to 193
O=C(CNc1ccccc1)N1CCC(Cc2ccccc2)CC1 | 107 to 109
C=CCc1ccc(OCCC(C)C)c2c(=O)cc(C(=O)OCC)oc12 | 104 to 106
Cc1noc(NS(=O)(=O)c2ccccc2-c2ccc(-c3ncco3)cc2CN(C)C(=O)C2CC2)c1C | 92 to 102
NC(=O)c1cc2ncccc2n1-c1ccc([N+](=O)[O-])cc1 | > 260
COc1ccc(N=C(C#Cc2ccccc2)N2CCN(Cc3ccc(F)cc3)CC2)cc1 | 98
CCC1(C)CN(c2c(F)cc3c(=O)c(C(=O)O)cn(C4CC4)c3c2OC)CCC1N (stereo not drawn) | 152 to 154

Structure (SMILES) | melting point [°C]
COc1cc(-c2oc3cc(I)ccc3c(=O)c2O)cc(OC)c1OCc1ccccc1 | 169 to 171
O=[N+]([O-])c1ccc(C=Cc2ccc(Cl)c(Cl)c2)cc1O | 105 to 106
CCn1c2cc(C=O)ccc2c2c3ccccc3ccc21 | 148 to 149
CCOC(=O)c1cnc2cc(OC)c(OC)cc2c1Nc1cccc(Br)c1 | 155 to 158
CC1(COc2cccc(Br)c2)COC(C)(C)OC1 | 67 to 70
CCn1c(=N)c(F)cn(S(=O)(=O)c2ccccc2)c1=O | 163 to 166
CC(C)n1cc(-c2cnc3c(c2)nnn3Cc2ccc3ncccc3c2)cn1 | 126 to 128
CC(C)=CC(C#N)NC(=O)c1cc(C)nn1C (stereo not drawn) | 92.5 to 94
C=C(c1ccccc1OC(C)c1ccccc1)n1ccnc1 (stereo not drawn) | 172 to 174
O=C(CCn1cnc2c(=O)[nH]cnc21)NC1CCSC1=O (stereo not drawn) | 228 to 230
CCCNC(=O)c1cccc(-c2nc(=O)c3ccccc3s2)n1 | 180 to 181
Cc1cc([N+](=O)[O-])c(Cl)c([N+](=O)[O-])c1S(=O)(=O)Cl | 105 to 107
O=C(O)COCCCCC1CCCN1c1cnc(-c2ccccc2)c(-c2ccccc2)n1 (stereo not drawn) | 138 to 140
CC(=O)Nc1ccc(OCC(O)CN2CCC(NC(=O)c3ccccc3)CC2)cc1 (stereo not drawn) | 226 to 228
O=C(NCCCSc1ccncc1)c1ccco1 | 98 to 99
CC(=O)Nc1nc2c(sc(=O)n2C2OC(COC(C)=O)C(OC(C)=O)C2OC(C)=O)c(=O)[nH]1 (stereo not drawn) | 247 to 248
COc1cc2c(cc1OC)C(O)(CN)CCC2 (stereo not drawn) | 107 to 109
CC(C)n1nc(-c2c(-c3ccccc3)nn3ccc(OCCN4CC4)cc23)ccc1=O | 159 to 160
CCCCCCCCCCCCCCCCCCOc1cc(N(CC(=O)OC)CC(=O)OC)cc(S(C)=O)c1 (stereo not drawn) | 80 to 82
